According to PubChem BioAssay AID248 (DTP/NCI, 2004):
Values joined by “and” are separate entries in the source; they are usually repeats but may differ in a detail not shown here. Equal entries are not always repeated. Inconclusive results and toxic doses are left out. No stated cut-off is given here; in the data, active means T/C of 150% or more; inactive means T/C below 125%.

Tested on: L1210 leukemia ip in BDF1 mice, survival T/C
Assay: NCI In Vivo Anticancer Drug Screen. Data for tumor model L1210 Leukemia (intraperitoneal) in B6D2F1 (BDF1) mice
Conditions: endpoint: mean survival time, higher = longer survival
Procedure, shortened: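 Tumor cells were implanted, animals were treated, and survival was followed. The result divides the treated measurement by the vehicle-control measurement.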

[1] = dose: 100.0 mg/kg/injection, schedule: Q04DX003 (ip), vehicle: saline with Tween-80
[2] = dose: 200.0 mg/kg/injection, schedule: Q04DX003 (ip), vehicle: saline with Tween-80
[3] = dose: 400.0 mg/kg/injection, schedule: Q04DX003 (ip), vehicle: saline with Tween-80
[4] = dose: 50.0 mg/kg/injection, schedule: Q01DX001 (ip), vehicle: saline
[5] = dose: 100.0 mg/kg/injection, schedule: Q01DX001 (ip), vehicle: saline
[6] = dose: 200.0 mg/kg/injection, schedule: Q01DX001 (ip), vehicle: saline
[7] = dose: 400.0 mg/kg/injection, schedule: Q01DX001 (ip), vehicle: saline
[8] = dose: 100.0 mg/kg/injection, schedule: Q04DX002 (ip), vehicle: Klucel (hydroxypropylcellulose) (HPC)
[9] = dose: 200.0 mg/kg/injection, schedule: Q04DX002 (ip), vehicle: Klucel (hydroxypropylcellulose) (HPC)
[10] = dose: 400.0 mg/kg/injection, schedule: Q04DX002 (ip), vehicle: Klucel (hydroxypropylcellulose) (HPC)
[11] = dose: 25.0 mg/kg/injection, schedule: Q04DX003 (ip), vehicle: Klucel (hydroxypropylcellulose) (HPC)
[12] = dose: 50.0 mg/kg/injection, schedule: Q04DX003 (ip), vehicle: Klucel (hydroxypropylcellulose) (HPC)
[13] = dose: 100.0 mg/kg/injection, schedule: Q04DX003 (ip), vehicle: Klucel (hydroxypropylcellulose) (HPC)
[14] = dose: 50.0 mg/kg/injection, schedule: Q01DX009 (ip), vehicle: saline with Tween-80
[15] = dose: 100.0 mg/kg/injection, schedule: Q01DX009 (ip), vehicle: saline with Tween-80
[16] = dose: 200.0 mg/kg/injection, schedule: Q04DX003 (ip), vehicle: Klucel (hydroxypropylcellulose) (HPC)
[17] = dose: 50.0 mg/kg/injection, schedule: Q01DX009 (ip), vehicle: Klucel (hydroxypropylcellulose) (HPC)
[18] = dose: 100.0 mg/kg/injection, schedule: Q01DX009 (ip), vehicle: Klucel (hydroxypropylcellulose) (HPC)
[19] = dose: 100.0 mg/kg/injection, schedule: Q04DX003 (ip), vehicle: saline
[20] = dose: 200.0 mg/kg/injection, schedule: Q04DX003 (ip), vehicle: saline

Measured: T/C

COc1cc(/C=N/Nc2ccc([N+](=O)[O-])cc2)cc(OC)c1OC
inactive: [1] 86 % of control | [2] 89 % of control | [3] 86 % of control

CC(C)C(CCN1CCCCC1)(CN=C(N)N)c1cccc2ccccc12 (configuration not stated)
inactive: dose: 5.0 mg/kg/injection, schedule: Q01DX009 (ip), vehicle: saline 99 % of control | dose: 6.25 mg/kg/injection, schedule: Q04DX002 (ip), vehicle: saline 100 % of control | dose: 10.0 mg/kg/injection, schedule: Q01DX009 (ip), vehicle: saline 100 % of control | dose: 12.5 mg/kg/injection, schedule: Q04DX002 (ip), vehicle: saline 93 % of control | dose: 20.0 mg/kg/injection, schedule: Q01DX009 (ip), vehicle: saline 101 % of control | dose: 25.0 mg/kg/injection, schedule: Q04DX002 (ip), vehicle: saline 97 % of control

O=C1C2(Cl)C3(Cl)C4(OCCO4)C4(Cl)C2(Cl)C2(Cl)C1(Cl)C3(Cl)C42Cl (configuration not stated)
inactive: [4] 100 % of control | [5] 100 % of control | [6] 105 % of control | [7] 96 % of control

COC(=O)N/N=C/c1ccccc1OC
inactive: [8] 104 % of control | [9] 104 % of control | [10] 93 % of control

CCOC(=O)Nc1cc(Nc2ccc(Cl)cc2)c2nc(-c3ccc(Cl)cc3)c(-c3ccc(Cl)cc3)nc2n1
inactive: [11] 104 % of control | [12] 101 % of control | [13] 98 % of control

COC(=O)C1=CNC=C(C(=O)OC)C1c1ccccc1
inactive: [1] 96 % of control | [2] 96 % of control | [3] 98 % of control

Clc1nc(Cl)c(Cl)c(C(Cl)(Cl)Cl)n1
inactive: dose: 25.0 mg/kg/injection, schedule: Q01DX009 (ip), vehicle: saline with Tween-80 101 % of control | [14] 92 % of control | [15] 87 % of control | dose: 200.0 mg/kg/injection, schedule: Q01DX009 (ip), vehicle: saline with Tween-80 86 % of control

O=C(COc1cccc(Cl)c1)Nc1cccc(CN2C(=O)c3ccccc3C2=O)c1
inactive: [12] 96 % of control | [13] 98 % of control | [16] 95 % of control

O=[N+]([O-])/C=C\c1ccc2c(c1)OCO2
inactive: dose: 25.0 mg/kg/injection, schedule: Q01DX009 (ip), vehicle: Klucel (hydroxypropylcellulose) (HPC) 87 % of control and 103 % of control | [17] 89 % of control and 100 % of control | [5] 106 % of control | [18] 103 % of control | [13] 102 % of control | [6] 119 % of control | [16] 97 % of control | [7] 97 % of control

CCOc1cc2cc(C(=O)O)sc2cc1OCC
inactive: [5] 101 % of control | [6] 110 % of control | [7] 104 % of control

O=[N+]([O-])c1cc(S(=O)(=O)F)ccc1O
inactive: dose: 5.0 mg/kg/injection, schedule: Q01DX001 (ip), vehicle: other 112 % of control | dose: 10.0 mg/kg/injection, schedule: Q01DX001 (ip), vehicle: other 97 % of control | dose: 20.0 mg/kg/injection, schedule: Q01DX001 (ip), vehicle: other 95 % of control | dose: 40.0 mg/kg/injection, schedule: Q01DX001 (ip), vehicle: other 101 % of control | dose: 80.0 mg/kg/injection, schedule: Q01DX001 (ip), vehicle: other 106 % of control

CN(CCCN1C(=O)c2ccccc2C1=O)c1ccc(N=O)cc1
inactive: dose: 25.0 mg/kg/injection, schedule: Q01DX001 (ip), vehicle: Klucel (hydroxypropylcellulose) (HPC) 101 % of control | dose: 50.0 mg/kg/injection, schedule: Q01DX001 (ip), vehicle: Klucel (hydroxypropylcellulose) (HPC) 95 % of control | dose: 100.0 mg/kg/injection, schedule: Q01DX001 (ip), vehicle: Klucel (hydroxypropylcellulose) (HPC) 92 % of control and 91 % of control

O=[N+]([O-])c1ccccc1CC1=NCCc2cc3c(cc21)OCO3
inactive: [5] 100 % of control | [6] 102 % of control | [7] 104 % of control

C=C1C(=O)OC2C1C(O)C(OC(=O)/C(C)=C\C)C(C)=C1CC3OC3(C)C12 (configuration not stated)
inactive: dose: 25.0 mg/kg/injection, schedule: Q01DX001 (ip), vehicle: saline with Tween-80 94 % of control | dose: 50.0 mg/kg/injection, schedule: Q01DX001 (ip), vehicle: saline with Tween-80 105 % of control

O=C(Nc1cccc(S(=O)(=O)F)c1)c1ccc(COc2ccc([N+](=O)[O-])cc2Cl)cc1
inactive: dose: 100.0 mg/kg/injection, schedule: Q01DX009 (ip), vehicle: saline sonified 100 % of control | [1] 97 % of control | dose: 200.0 mg/kg/injection, schedule: Q01DX009 (ip), vehicle: saline sonified 100 % of control | [2] 100 % of control | dose: 400.0 mg/kg/injection, schedule: Q01DX009 (ip), vehicle: saline sonified 94 % of control | [3] 94 % of control

COc1ccc(CCN=c2c3ccccc3ccc3ccccc23)cc1OC
inactive: [19] 111 % of control | [20] 97 % of control | dose: 400.0 mg/kg/injection, schedule: Q04DX003 (ip), vehicle: saline 105 % of control

Nc1ccc([N+](=O)[O-])cc1Cl
inactive: [8] 122 % of control | [9] 105 % of control | [10] 97 % of control

Cc1ccc(NC(=S)N2CCCC(C)C2)cc1C (configuration not stated)
inactive: [18] 102 % of control | dose: 200.0 mg/kg/injection, schedule: Q01DX009 (ip), vehicle: Klucel (hydroxypropylcellulose) (HPC) 100 % of control | dose: 400.0 mg/kg/injection, schedule: Q01DX009 (ip), vehicle: Klucel (hydroxypropylcellulose) (HPC) 102 % of control

CC12CC3CC(C)(C1)CC(O)(C3)C2
inactive: dose: 50.0 mg/kg/injection, schedule: Q01DX001 (ip), vehicle: carboxymethylcellulose (CMC) 101 % of control | dose: 100.0 mg/kg/injection, schedule: Q01DX001 (ip), vehicle: carboxymethylcellulose (CMC) 98 % of control | dose: 200.0 mg/kg/injection, schedule: Q01DX001 (ip), vehicle: carboxymethylcellulose (CMC) 92 % of control

CC(=O)CN
inactive: dose: 100.0 mg/kg/injection, schedule: Q01DX009 (ip), vehicle: saline 111 % of control | dose: 200.0 mg/kg/injection, schedule: Q01DX009 (ip), vehicle: saline 104 % of control | dose: 400.0 mg/kg/injection, schedule: Q01DX009 (ip), vehicle: saline 108 % of control

Cc1ccc(S(=O)(=O)OCCOCCOS(=O)(=O)c2ccc(C)cc2)cc1
inactive: [1] 100 % of control | [2] 104 % of control | [3] 100 % of control

O=C1CCCCc2c1ccc(O)c2[N+](=O)[O-]
inactive: [14] 88 % of control

CC(Cl)(CCl)C(=O)O (configuration not stated)
inactive: [4] 95 % of control | [5] 103 % of control

CC(C)NC(=O)c1ccc(/C=N/N(C)C)cc1
inactive: [11] 104 % of control | [12] 106 % of control | [13] 95 % of control | [16] 101 % of control

CC(C)(C)c1ccc(S(=O)(=O)C/C=C/COc2ccccc2)cc1
inactive: dose: 75.0 mg/kg/injection, schedule: Q01DX009 (ip), vehicle: Klucel (hydroxypropylcellulose) (HPC) 91 % of control | dose: 150.0 mg/kg/injection, schedule: Q01DX009 (ip), vehicle: Klucel (hydroxypropylcellulose) (HPC) 98 % of control

COc1cccc(/C2=C/CCCCCC2)c1
inactive: dose: 50.0 mg/kg/injection, schedule: Q01DX009 (ip), vehicle: acetone 95 % of control | dose: 100.0 mg/kg/injection, schedule: Q01DX009 (ip), vehicle: acetone 107 % of control | dose: 100.0 mg/kg/injection, schedule: Q04DX003 (ip), vehicle: acetone 100 % of control | dose: 200.0 mg/kg/injection, schedule: Q01DX009 (ip), vehicle: acetone 93 % of control | dose: 200.0 mg/kg/injection, schedule: Q04DX003 (ip), vehicle: acetone 105 % of control | dose: 400.0 mg/kg/injection, schedule: Q04DX003 (ip), vehicle: acetone 91 % of control

O=[N+]([O-])c1cc([As](=O)(O)O)ccc1Cl
inactive: [17] 97 % of control | [18] 97 % of control | [13] 100 % of control | [16] 104 % of control

O=C1CC(=O)c2ccccc21
inactive: [1] 98 % of control | [2] 92 % of control | [3] 93 % of control

CN(C)/N=C/c1ccccn1
inactive: [19] 106 % of control | [20] 109 % of control

CCN(CC)S(=O)(=O)c1cccc([N+](=O)[O-])c1
inactive: [15] 99 % of control
